Source: patent US5010089A, “CCK antagonists and their use in treating gastrointestinal disorders” (Biomeasure, Inc., priority 1989, dated 1991)

Assays:
Pancreatic CCK Receptor = target: T1, Pancreatic CCK Receptor (Rattus norvegicus, UniProt P30551); experiment: [125I]CCK8 binding assay, pancreatic membranes; set-up: species or system Sprague-Dawley rats; settings: [125I]CCK8 0.05 nM, rat pancreas membranes, 90 min, 25° C.
T1 construct: the pancreas or cerebral was removed and homogenized; from tissue; host or cells: pancreas of male Sprague-Dawley rats, membrane preparation
T1 sequence (P30551 1-444): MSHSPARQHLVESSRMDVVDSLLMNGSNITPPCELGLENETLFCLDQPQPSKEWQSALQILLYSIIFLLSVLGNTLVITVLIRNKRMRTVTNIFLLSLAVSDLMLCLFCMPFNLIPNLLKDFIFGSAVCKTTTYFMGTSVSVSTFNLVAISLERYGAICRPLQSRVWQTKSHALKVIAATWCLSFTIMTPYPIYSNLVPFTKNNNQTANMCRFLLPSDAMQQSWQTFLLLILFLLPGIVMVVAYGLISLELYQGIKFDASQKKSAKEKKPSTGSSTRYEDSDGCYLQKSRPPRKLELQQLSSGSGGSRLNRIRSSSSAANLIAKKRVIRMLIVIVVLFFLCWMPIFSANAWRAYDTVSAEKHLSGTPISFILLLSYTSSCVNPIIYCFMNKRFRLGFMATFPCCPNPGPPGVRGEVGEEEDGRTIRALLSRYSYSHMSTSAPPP
Procedure: Inhibition studies of CCK by specific compounds of the present invention were carried out as follows. Male, Sprague-Dawley rats were sacrificed by decapitation and the pancreas or cerebral was removed and homogenized with a Brinkman Polytron (setting 6, 15 sec). The homogenates were centrifuged twice at 39,000 g for 10 min (4° C.), with an intermediate resuspension in fresh buffer. The final pellets were resuspended in the following buffer for the [^125 I]CCK8 binding assay: 10 mM HEPES, 118 mM NaCL, 4.7 mM KCl, and 5 mM MgCL2, 1 mM EGTA, 5 mg/ml bovine serum albumin, and 0.25 mg/ml bacitracin.
For the [^125 I]CCK8 binding assay, aliquots of the membrane preparations were added to plastic culture tubes containing 0.05 nM [^125 I]CCK8 (2200 Ci/mmol, New England Nulclear Corp ) and various concentrations of the test compounds in a final volume of 0.5 ml. The incubation period was 90 min (25° C.). The binding reaction was terminated by the addition of 4 ml of ice-cold buffer, followed by filtration through Whatman GF/B filters which had been previously soaked in 2% bovine serum albumin. Each tube and filter were then washed three times with 4-ml aliquots of ice-cold buffer. The radioactivity trapped on the filters was counted in an LKB Clini Gamma counter. Specific binding was defined as the total [^125 I]CCK8 bound minus that bound in the presence of 1 μM unlabeled CCK8.
Table 1 sets forth data from inhibition studies of CCK by specific compounds of the present invention in which Ar, m, and A are defined as set forth below: […]

gastric emptying = experiment: anti-spasmodic activity: effect on gastric emptying (charcoal meal) after CCK-8 in mice; type: in vivo, CF1 mice; settings: for ED50: Mus musculus, anti-spasmodic activity
Procedure: In vivo studies were made to test the therapeutic effect of α-N-(2-indolylcarbonyl) L-tryptyl-N'-phenylethylglycine (BIM-18216),α-N-(3-quinolylcarbonyl)-L-tryptyl-N'-phenylethylglycine (BIM-18225), α-N-(2-naphthylcarbonyl)-L-tryptyl-N'-phenylethylglycine (BIM-18226), and α-N-(2-indolylcarbonyl) D-tryptyl-N'-phenylethylglycine (BIM-18227). The effect of the foregoing compounds on gastric emptying was measured as the percentage of anti-spasmodic activity. Tests were carried out on female CF1 mice as follows. Mice weighing approximately 20 g were fasted overnight. Test compounds were administered in one of four ways: intraperitoneally (i.p.), subcutaneously (s.c.), intravenously (i.v.), or orally (p.o.). Test compounds administered orally were dissolved in a mixture of 75% by volume polyethylene glycol 400 NF, 15% by volume propylene glycol USP, and 10% by volume purified H2 O USP. For other methods of administration, the test compounds were dissolved in a solution of saline containing 10% DMSO (by volume) for i.v. administration; and in a solution of saline containing 10% DMSO (by volume) and 0.25% methylcellulose (by weight) for s.c. or i.p. administration. Test compounds were administered to the mice 15 minutes prior to administering CCK-8 (40 μg/kg, s.c.). The mice were fed a charcoal meal orally 5 minutes after CCK injection and the animals were sacrificed 5 minutes later. The lengths of the intestines filled with charcoal were measured and the % of anti-spasmodic activity was calculated based upon the lengths according to the following formula: [formula]
Table 2, below, contains data on the anti-spasmodic activity of the compounds tested by oral administration.
Table 3, below, contains data for the test compound BIM-18216 administered in each of the four different ways discussed above.

[1] = Table 2, 125 mg/kg p.o., 15 min before CCK-8 (40 μg/kg, s.c.), 125 mg/kg
[2] = Table 2, 125 mg/kg p.o., 15 min before CCK-8 (40 μg/kg, s.c.)
[3] = Table 2, 100 mg/kg p.o., 15 min before CCK-8 (40 μg/kg, s.c.)

In the case of `O=C(O)CN(CCc1ccccc1)C(=O)C(Cc1c[nH]c2ccccc12)NC(=O)c1ccc2ccccc2n1` [2-quinolyl, α-N-(2 quinolylcarbonyl) L-tryptyl-N'-phenylethylglycine], the IC50 (Pancreatic CCK Receptor) is reported as 170 nM.

Work on `O=C(O)CN(CCc1ccccc1)C(=O)C(Cc1c[nH]c2ccccc12)NC(=O)c1cc2ccccc2[nH]1` [BIM-18216, α-N-(2-indolylcarbonyl) L-tryptyl-N'-phenylethylglycine] yielded an ED50 (gastric emptying; ip) of 5.8 mg/kg, an ED50 (gastric emptying; iv) of 6.6 mg/kg and an ED50 (gastric emptying; po) of 96.7 mg/kg. For the same compound, the ED50 (gastric emptying; sc) was 4.5 mg/kg, the “% Anti-Spasmodic Activity” value (gastric emptying; [1]) was 78% and the “% Anti-Spasmodic Activity” value (gastric emptying; Table 3, 1 mg/kg i.p., 15 min before CCK-8) was 1%. For the same compound, the “% Anti-Spasmodic Activity” value (gastric emptying; Table 3, 1 mg/kg s.c., 15 min before CCK-8) was 1%, the “% Anti-Spasmodic Activity” value (gastric emptying; Table 3, 5 mg/kg i.p., 15 min before CCK-8) was 45% and the “% Anti-Spasmodic Activity” value (gastric emptying; Table 3, 5 mg/kg i.v., 15 min before CCK-8) was 36%. The “% Anti-Spasmodic Activity” value (gastric emptying; Table 3, 5 mg/kg s.c., 15 min before CCK-8) was 53%, the “% Anti-Spasmodic Activity” value (gastric emptying; Table 3, 10 mg/kg i.v., 15 min before CCK-8) was 70% and the “% Anti-Spasmodic Activity” value (gastric emptying; Table 3, 10 mg/kg s.c., 15 min before CCK-8) was 75%. The “% Anti-Spasmodic Activity” value (gastric emptying; Table 3, 25 mg/kg i.p., 15 min before CCK-8) was 91%, the “% Anti-Spasmodic Activity” value (gastric emptying; Table 3, 25 mg/kg i.v., 15 min before CCK-8) was 123% and the “% Anti-Spasmodic Activity” value (gastric emptying; Table 3, 25 mg/kg s.c., 15 min before CCK-8) was 108%. The “% Anti-Spasmodic Activity” value (gastric emptying; Table 3, 50 mg/kg p.o., 15 min before CCK-8) was 10%, the “% Anti-Spasmodic Activity” value (gastric emptying; Table 3, 50 mg/kg s.c., 15 min before CCK-8) was 112% and the “% Anti-Spasmodic Activity” value (gastric emptying; Table 3, 75 mg/kg p.o., 15 min before CCK-8) was 47%. For the same compound, the “% Anti-Spasmodic Activity” value (gastric emptying; Table 3, 100 mg/kg p.o., 15 min before CCK-8) was 56%, the “% Anti-Spasmodic Activity” value (gastric emptying; Table 3, 125 mg/kg p.o., 15 min before CCK-8) was 81% and the “% Anti-Spasmodic Activity” value (gastric emptying; Table 3, 250 mg/kg p.o., 15 min before CCK-8) was 88%. The “% Anti-Spasmodic Activity” value (gastric emptying; Table 3, 500 mg/kg p.o., 15 min before CCK-8) was 105%.

`O=C(O)CN(CCc1ccccc1)C(=O)C(Cc1c[nH]c2ccccc12)NC(=O)c1cnc2ccccc2c1` [BIM-18225, α-N-(3-quinolylcarbonyl)-L-tryptyl-N'-phenylethylglycine] was tested, and the “% Anti-Spasmodic Activity” value (gastric emptying; [2]) was 22%.

With `O=C(O)CN(CCc1ccccc1)C(=O)C(Cc1c[nH]c2ccccc12)NC(=O)c1ccc2ccccc2c1` [BIM-18226, α-N-(2-naphthylcarbonyl)-L-tryptyl-N'-phenylethylglycine] the IC50 (Pancreatic CCK Receptor) was 500 nM, the “% Anti-Spasmodic Activity” value (gastric emptying; [3]) was 35% and the “% Anti-Spasmodic Activity” value (gastric emptying; [2]) was 88%.

For `O=C(O)CN(CCc1ccccc1)C(=O)C(Cc1c[nH]c2ccccc12)NC(=O)c1cc2ccccc2[nH]1` [BIM-18227, α-N-(2-indolylcarbonyl) D-tryptyl-N'-phenylethylglycine], the IC50 (Pancreatic CCK Receptor) was 30 nM, the “% Anti-Spasmodic Activity” value (gastric emptying; [3]) was 24% and the “% Anti-Spasmodic Activity” value (gastric emptying; [1]) was 60%.
